# Reference: paper PMC4519333, “Preclinical Evaluation of a Potential GSH Ester Based PET/SPECT Imaging Probe DT(GSHMe)2 to Detect Gamma Glutamyl Transferase Over Expressing Tumors” (PLoS ONE, 2015)
# Read-outs that look alike come from different tables or passages of the source.
# Columns and labels:
# [1] = tested on: athymic mice bearing BMG-1 tumors; test: Micro PET/CT small animal imaging with ROI analysis; type: in vivo; conditions: blocking dose ~5 mg/Kg native GSH, PET 2 h post injection, BMG-1 tumor
# Procedure: (§1) Athymic male mice were xenografted with BMG-1 human tumor cell line (0.1 mL of cell suspension containing ~5 ×10^6 BMG cells) in the flank region of the hind limb. BALB/c mice were inoculated with EAT murine tumor cells (5–6 × 10^6) in the flank region of the right hind limb. An inflammation lesion was induced in the fore limb by intramuscular injection of turpentine oil (100 μL) 48 h before imaging. For Scintigraphy, (n = 6) mice used for imaging, biodistribution studies (n = 32 mice) for two experiments 4 mice/group for 4 time points and blood kinetics (n = 18).
# (§2) Xenografted experimental models were intravenously administered 0.1mg/Kg body weight ^68Ga-DT(GSHMe)2 (37 ± 2.2 MBq) and 0.25 mg/Kg Body weight ^99mTc-DT(GSHMe)2 (29.6 ± 1.8 MBq) via tail vein for PET and SPECT respectively. Blocking dose of ~ 5 mg/Kg body weight of GSH was administered intravenously in the experimental animal. The acquisition was performed 2 h post injection. The ratios were calculated from counts per pixel of individual ROI (Region of interest) for semi-quantitative analysis to understand the distribution and localization.
# in vivo [2] = test: in vivo; parameters: species or system mice; conditions: BALB/c, mouse, iv, 0.1 mg/kg body weight, total radioactivity
# Procedure: Biodistribution studies were also performed on tumor bearing BALB/c mice. 0.1 mg/Kg body weight ^68Ga-DT(GSHMe)2 (~25 ± 1.5 MBq) was injected through tail vein and at different time points viz., 30 min, 1 and 2 h animals were sacrificed and organs were dissected out. Uptake of radioactivity in individual organ is noted and %ID/g is then calculated.
# [3] = Log P calculation (octanol/PBS partition); type: physicochemical
# Procedure: The value of partition coefficient of radiolabeled […] calculated and expressed as log P. The radiolabeled […] passed through 0.22 μ filter and approximately 10.2 ± 1.5 MBq of labeled compound was diluted in PBS, pH 7.4. To this equal volume of 1-octanol was added. The mixture was thoroughly vortexed for 10 min and then centrifuged at 5000 rpm for 5 min. […] The measurement was repeated thrice. The partition coefficient (P) was calculated using the following equation wherein, P = (counts in octanol fraction) / (counts in PBS fraction). For each value of P, log P value is calculated.
# BMG-1 cells = test: Cell cycle analysis by flow cytometry (PI); type: cell-based, human
# Procedure: 10^5 cells per well were plated in a Petri dishes and kept in the incubator overnight at 37°C. Following day, cells were treated with different drug concentrations (0.01 μM –1000 μM). At specific time points, media was carefully removed and cells were harvested in micro centrifuge tubes. Cells were centrifuged at 1200 rpm for 6 min. Supernatant was removed and 700 μL of 80% cold ethanol was added drop wise. Pellet was uniformly dispersed and samples were stored at 4°C for at least 24 h. Samples were centrifuged to remove supernatant and RNAse at a final concentration of 0.5 mg/mL was added to the pellet and incubated at 37°C for 1 h. Finally Propidium Iodide (PI) solution at a final concentration of 10μg/mL was added and the samples were analyzed by flow cytometry.
# cell lines [4] = test: MTT assay (cytotoxicity); type: cell-based
# Procedure: To confirm the results from SRB assay, MTT assay which measures cell metabolic activity was performed to correlate the results obtained using SRB assay. Exponentially growing cells were plated in a 96 well microtitre plate at a cell density of 4000 cells per well 24 h before treatment. Cells were treated with varying concentrations of the drug for different time intervals (24, 48, and 72 h). At the end of treatment, both the treated cells and untreated control were incubated with MTT at final concentration of 0.1mg/mL for 3 h at 37°C and the medium was removed thereafter. Cells from each treatment were lysed and the formazan crystals were dissolved using 150 μL of DMSO for 30 min. Optical density of extracts at 570 nm was measured (reference filter: 630 nm). Surviving fraction was determined and was plotted against concentration as a function of time.
# cell lines [5] = test: Sulfo rhodamine B (SRB) assay (cytotoxicity); type: cell-based
# Procedure: SRB assay was performed to estimate the cytotoxicity of DT(GSHMe)2. SRB binds to total protein content of the cells and is independent of metabolic activity. Cells were seeded at the density of 6000 cells per well in 96 well microtiter plate. Cells were treated with varying concentration of DT(GSHMe)2 from 0.001 μM-1000 μM for different time intervals (24, 48 and 72 h). At each time point, 100 μL of ice cold 10% (wt/vol) trichloroacetic acid (TCA) was added to each well and were incubated for 1 h at 4°C followed by washing the plate four times under running tap water. Plates were then air dried and 100 μL of 0.057% SRB solution was added in each well for 30 min. Plates were quickly rinsed four times with 1% (v/v) acetic acid and air dried. To develop color, 200 μL of 10 mM Tris base solution (pH 10.5) was added to each well and kept on gyratory shaker for 5 min. The color intensity was measured fluorometrically at excitation 488 nm and emission at 585 nm. Surviving fraction was calculated and plotted for the concentration range 0.001 μM-1000 μM as a function of time.
# [6] = In vivo total glutathione estimation from tumor, RBC and plasma; parameters: species or system BALB/c mice bearing EA tumors; conditions: n = 3
# Procedure: Levels of total Glutathione (GSH/GSSG) were estimated from tumor, RBC and plasma isolated from BALB/c mice bearing EA tumors, after injection of unlabeled 100 μM DT(GSHMe)2 (100 μL). At time points (15 min, 30 min, 1, 2and 4 h), blood samples were withdrawn and tumors were excised. Tumors were homogenized in 3 volumes of 5% sulfosalicylic acid (SSA) and centrifuged at 10,000 x g for 10 min at 4°C. Blood was centrifuged and the plasma fraction was separated from RBC pellet. To each RBC and plasma fractions, equal volume of 5% SSA was added, followed by vortexing and centrifugation at 10,000 x g for 10 min at 4°C. Supernatant was collected and used for estimating total glutathione levels.
# [7] = molecular target: T1, GGT on the surface of BMG-1 cells (Homo sapiens, UniProt P19440); test: Cell binding studies on BMG-1 cells (Scatchard); conditions: 2 h, 37°C, Scatchard plot
# T1 construct: endogenous in cells; host or cells: BMG-1 cerebral glioma cells (monolayer)
# Procedure: (§3) The specificity of ^99[…])2 to bind externally on tumor cells were examined by receptor binding assays on EAT cells isolated from the ascitic fluid of BALB/c Mice. Cells were diluted to 2 x 10^6 cells per mL and were aliquoted in different micro centrifuge tubes. Cells were washed twice with HBSS and finally resuspended in 1 mL of HBSS. Cells were then treated with various concentration of ^99[…]) for 2 h at 37°C. […] Specific binding was obtained by subtracting nonspecific binding from total binding. At the end of each incubation time, the cells were washed with cold PBS twice and pelleted down. Finally, cells were lysed and cell-associated radioactivity was determined by gamma counting. The total protein content of cells was estimated by Bicinchoninic acid (BCA) method. Similarly the binding experiments were performed on monolayer of BMG-1 cells (2 x 10^6) and were treated with ^99[…]) for 2 h at 37°C. […] Cells were lysed and cell associated radioactivity was determined. The total protein content was determined by BCA method. Scatchard Plot were plotted to determine Kd and Bmax.
# [8] = molecular target: T2, GGT on the surface of EAT cells (Mus musculus, UniProt Q60928); test: Cell binding studies on EAT cells (Scatchard); parameters: species or system mice; conditions: 2 h, 37°C, Scatchard plot
# T2 construct: endogenous in cells; host or cells: Ehrlich Ascites tumor (EAT) cells, strain F-3, passaged in BALB/c mice
# Procedure: as §3
# [9] = parameters: species or system mice; conditions: mouse, in vivo, iv
# Procedure: Blood clearance was performed to observe the rate of clearance of drug post administration. Radiolabeled conjugate 0.25 mg/Kg body weight of ^99mTc-DT(GSHMe)2 (22.2 ± 2.8 MBq) was administered intravenously through the tail vein of the mice. Blood samples were withdrawn at different time intervals (5, 15, 30 min, 1, 2 and 24 h). Decay corrected radioactivity is expressed as % ID, assuming a weight based theoretical blood volume as 7% of the body weight.
# in vivo [10] = test: in vivo; parameters: species or system mice; conditions: BALB/c, mouse, iv, 0.25 mg/kg body weight, total radioactivity
# Procedure: Radiolabeled ^99mTc-DT(GSHMe)2 (0.25 mg/Kg body weight) in a volume of 150 μL (11.1 ± 1.2 MBq) was carefully injected through the tail vein of each BALB/c mice xenografted with EAT Tumors in the hind limb. At 30 min, 1, 2 and 4 h post injection mice were sacrificed and different organs and tissues were dissected out. All the organs and tissues were rinsed in saline, weighed and counted in a gamma counter. Uptake of the radiotracer in each tissue was calculated and expressed as a percentage injected dose per gram of the tissue (% ID/g) and corrected for ^99mTc decay.
# [11] = tested on: BALB/c mice bearing EAT tumor and turpentine oil inflammation; test: SPECT imaging, tumor versus inflammation; type: in vivo; conditions: 2 h post i.v., EAT tumor hind limb, inflammation fore limb
# Procedure: as §1, §2
# EAT cells = test: Time course and kinetics of uptake; type: cell-based, mice
# Procedure: EAT cells were isolated from ascitic fluid of BALB/c mice and were diluted to 3 x 10^6 cells/mL. Cells were aliquoted in different micro centrifuge tubes and were treated with 200 μM of ^99mTc-DT(GSHMe)2 for different time intervals (0, 10, 30 sec, 1, 2, 5, 10, 30 min, 1 and 2 h). After the treatment, cells were centrifuged at 2000 rpm for 5 min and supernatant was carefully removed. Followed by three washes of cold saline and acidic wash buffer, cells were centrifuged to yield the pellet. The pellet was dissolved in 500 μL of lysis buffer. The amount of radioactivity (CPM) in cell lysate was determined by gamma counter. Later, after the activity decayed, total protein from the cells was estimated by BCA method of protein estimation. Absorbance values were determined at 595 nm on a multi plate reader. A standard plot was constructed taking various dilutions of BSA. Drug uptake was calculated and plotted.
# [12] = 0.25 h after injection of 100 μM unlabeled compound
# T2 sequence (Q60928 1-379 limits assumed): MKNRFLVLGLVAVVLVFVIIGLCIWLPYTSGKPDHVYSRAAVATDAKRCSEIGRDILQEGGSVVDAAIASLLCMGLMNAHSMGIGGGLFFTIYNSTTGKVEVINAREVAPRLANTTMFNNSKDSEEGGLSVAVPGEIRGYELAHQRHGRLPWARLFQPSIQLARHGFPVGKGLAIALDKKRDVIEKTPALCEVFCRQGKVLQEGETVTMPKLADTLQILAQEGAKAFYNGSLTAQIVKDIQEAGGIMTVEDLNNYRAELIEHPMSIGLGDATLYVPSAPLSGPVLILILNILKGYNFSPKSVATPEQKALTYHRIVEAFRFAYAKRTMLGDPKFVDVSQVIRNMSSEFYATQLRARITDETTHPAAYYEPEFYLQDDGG
# T2 sequence (Q60928 380-568 limits assumed): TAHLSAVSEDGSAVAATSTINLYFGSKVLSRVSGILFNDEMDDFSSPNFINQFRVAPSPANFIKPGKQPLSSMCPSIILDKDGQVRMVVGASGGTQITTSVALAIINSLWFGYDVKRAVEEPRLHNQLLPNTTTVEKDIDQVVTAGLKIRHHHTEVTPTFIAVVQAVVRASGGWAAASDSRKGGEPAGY
# T1 sequence (P19440 1-380 limits assumed): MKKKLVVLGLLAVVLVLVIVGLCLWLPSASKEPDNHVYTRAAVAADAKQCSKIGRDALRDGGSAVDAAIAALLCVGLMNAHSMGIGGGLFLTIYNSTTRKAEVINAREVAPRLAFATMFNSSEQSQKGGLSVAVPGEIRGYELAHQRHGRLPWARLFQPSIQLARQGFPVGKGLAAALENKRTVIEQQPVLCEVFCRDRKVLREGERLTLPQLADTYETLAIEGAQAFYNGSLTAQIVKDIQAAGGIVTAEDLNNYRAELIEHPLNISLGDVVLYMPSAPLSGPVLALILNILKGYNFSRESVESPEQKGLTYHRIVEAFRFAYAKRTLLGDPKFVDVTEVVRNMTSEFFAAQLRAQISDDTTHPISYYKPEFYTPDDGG
# T1 sequence (P19440 381-569 limits assumed): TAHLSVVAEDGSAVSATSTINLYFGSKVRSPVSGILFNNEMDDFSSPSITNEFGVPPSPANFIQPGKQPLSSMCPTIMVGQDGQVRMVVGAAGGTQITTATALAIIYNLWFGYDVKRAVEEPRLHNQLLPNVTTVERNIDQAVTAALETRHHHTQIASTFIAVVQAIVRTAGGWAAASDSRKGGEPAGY
smiles,measurement,setting,value
"CCOC(=O)CNC(=O)[C@H](CS)NC(=O)CC[C@H](NC(=O)CN(CCN(CCN(CC(=O)O)CC(=O)N[C@@H](CCC(=O)N[C@@H](CS)C(=O)NCC(=O)OCC)C(=O)O)CC(=O)O)CC(=O)O)C(=O)O [68Ga-DT(GSHMe)2, metal not drawn]",block of uptake at tumor site by GSH,[1],95.57%
same,tissue to tissue ratio at 2 h,in vivo [2],26.4
"N[C@@H](CCC(=O)N[C@@H](CS)C(=O)NCC(=O)O)C(=O)O [glutathione, Glutathione, reference compound]",logD,"[3]; shake-flask 1-octanol/PBS pH 7.4, equal volumes, vortexed 10 min, centrifuged 5000 rpm 5 min, gamma counter, repeated thrice, read-out: Log P",-3.23 ± 0.141
"CCOC(=O)CNC(=O)[C@H](CS)NC(=O)CC[C@H](NC(=O)CN(CCN(CCN(CC(=O)O)CC(=O)N[C@@H](CCC(=O)N[C@@H](CS)C(=O)NCC(=O)OCC)C(=O)O)CC(=O)O)CC(=O)O)C(=O)O [DT(GSHMe)2, Diethylene triaminpentaacetic acid bis glutathione monoethylester]",G1 cell population,"BMG-1 cells; BMG-1, 1 μM, 24 h",83.2 ± 4.16%
same,G1 cell population,"BMG-1 cells; BMG-1, 1000 μM, 24 h",49.5 ± 2.47%
same,increase of apoptotic cells versus control,"BMG-1 cells; BMG-1, 1000 μM, 24 h",approximately 14 folds
same,apoptotic cells,"BMG-1 cells; BMG-1, 1000 μM, 24 h treatment",23.4 ± 1.17%
same,toxicity on cell lines,"cell lines [4]; 100 μM concentration, in vitro evaluations on cell lines",minimal toxicity
same,toxicity,"cell lines [4]; MTT, lower concentration (below 100 μM), 24-72 h",nontoxic
same,cell population remained viable,"cell lines [5]; 1000 μM, 72 h",11.57 ± 3.84%
same,IC50,"cell lines [5]; cell line not stated, read-out: IC50 (nearly 50% cell lysis)",~500 µM
same,toxicity,cell lines [5]; lower concentration (below 100 μM),nontoxic
same,Plasma total glutathione,[6]; [12],0.13 ± 0.029 μmoles of GSH/ml
same,RBC total glutathione,[6]; [12],0.38 ± 0.021 μmoles of GSH/ml
same,Tumor total glutathione,[6]; [12],3 ± 0.007 μmoles of GSH/g tissue weight
same,Plasma total glutathione,[6]; 0.5 h after injection,0.16 ± 0.028 μmoles of GSH/ml
same,RBC total glutathione,[6]; 0.5 h after injection,0.39 ± 0.026 μmoles of GSH/ml
same,Tumor total glutathione,[6]; 0.5 h after injection,4.3 ± 0.019 μmoles of GSH/g tissue weight
same,Plasma total glutathione,[6]; 1 h after injection,0.28 ± 0.127 μmoles of GSH/ml
same,RBC total glutathione,[6]; 1 h after injection,0.45 ± 0.010 μmoles of GSH/ml
same,Tumor total glutathione,[6]; 1 h after injection,4.5 ± 0.070 μmoles of GSH/g tissue weight
same,Plasma total glutathione,[6]; 2 h after injection,0.32 ± 0.155 μmoles of GSH/ml
same,RBC total glutathione,[6]; 2 h after injection,0.5 ± 0.11 μmoles of GSH/ml
same,Tumor total glutathione,[6]; 2 h after injection,4.9 ± 0.010 μmoles of GSH/g tissue weight
same,Plasma total glutathione,[6]; 4 h after injection,0.23 ± 0.041 μmoles of GSH/ml
same,RBC total glutathione,[6]; 4 h after injection,0.39 ± 0.001 μmoles of GSH/ml
same,Tumor total glutathione,[6]; 4 h after injection,4.1 ± 0.010 μmoles of GSH/g tissue weight
"CCOC(=O)CNC(=O)[C@H](CS)NC(=O)CC[C@H](NC(=O)CN(CCN(CCN(CC(=O)O)CC(=O)N[C@@H](CCC(=O)N[C@@H](CS)C(=O)NCC(=O)OCC)C(=O)O)CC(=O)O)CC(=O)O)C(=O)O [99mTc-DT(GSHMe)2, metal not drawn]",Bmax,[7],17.2 nM
same,Bmax,[8],91.02 nM
same,biological half-life t1/2 (Slow),[9],15.44
same,t1/2 slow,[9],15.44 h
same,biological half-life t1/2 (Fast),[9]; 0.25 mg/kg,8.8 min
same,logD,[3]; pH 7.4,-1.31 ± 0.104
same,tissue to tissue ratio at 2 h,in vivo [10],24
same,tracer localisation tumor versus inflammation,[11],substantial amount of radiotracer concentration at tumor site
same,maximal transport rate velocity (Vmax),EAT cells,0.478 µM/min
same,Km,"EAT cells; Eadie-Hofstee, read-out: Michaelis constant (Km) of transport",2250 nM
